Data reported in article PMC3290907 (Evidence-based Complementary and Alternative Medicine : eCAM, 2012).

Target: T1, PDE4 (homogenate of guinea pig lungs or hearts)
T1 construct: gene PDE4A; native enzyme activity in lung or heart homogenate; subtype not resolved; other PDE families may be present
Assay: [3H]-cAMP hydrolysis, two-step radioassay, Lineweaver-Burk
Assay type: biochemical, Cavia porcellus
Conditions: cAMP substrate; 3 mM MgCl2; pH 7.4; 37°C; competitive; lung or heart homogenate

`COc1ccc([C@@H]2CC(=O)c3c(O)cc(O)cc3O2)cc1O` [hesperetin, 5,7,3′-trihydroxy-4′-methoxyflavanone] gave a Ki of 45.6 ± 2.3 µM.
